In ChEMBL document CHEMBL3400078, “Constituents of the stem barks of Ailanthus altissima and their potential to inhibit LPS-induced nitric oxide production” (Bioorg Med Chem Lett, 2015):

What follows are compounds tested on RAW264.7 (assay: Antiinflammatory activity in mouse RAW264.7 cells assessed as decrease in LPS-induced NO production after 24 hrs by Griess assay). Settings: RAW264.7, 24 h.
Type: functional, cell-based
`COc1cc2ccc(=O)oc2c(OC)c1O` was tested, and the IC50 was over 100 µM.
In the case of `COc1cc(C(=O)CCO)ccc1O`, the IC50 is reported as 43.8 µM.
For `C=C1[C@H](O)[C@]2(O)OC[C@]34[C@H]2[C@@]2(C)[C@H](O)[C@@H](O)C=C(C)[C@@H]2C[C@H]3OC(=O)C[C@@H]14` [SHINJULACTONE A], the IC50 was 56.4 µM.
`C=C1[C@@H](O)[C@]2(O)OC[C@]34[C@H]2[C@@]2(C)[C@H](O)[C@@H](O[C@@H]5O[C@H](CO)[C@@H](O)[C@H](O)[C@H]5O)C=C(C)[C@@H]2C[C@H]3OC(=O)C[C@@H]14` gave an IC50 of 100 µM.
`COc1cc(C(=O)O)ccc1O` [VANILLIC ACID] gave an IC50 of 23.2 µM.
`C[C@@](O)(CC(=O)O)CC(=O)OC[C@H]1O[C@@H](Oc2cnc3ccc(=O)n4c5ccccc5c2c34)[C@H](O)[C@@H](O)[C@@H]1O` was tested, and the IC50 was 85 µM.
Compound `O=C(O)c1ccc(O)cc1` [PARABEN] has an IC50 of 72.8 µM.
Compound `C[C@@](O)(CC(=O)O)CC(=O)OC[C@H]1O[C@@H](Oc2cnc3ccc(=O)n4c5ccccc5c2c34)[C@H](O[C@@H]2OC[C@](O)(CO)[C@H]2O)[C@@H](O)[C@@H]1O` has an IC50 of over 100 µM.
`CC(=N)NCCCC[C@H](N)C(=O)O` [L-NIL] gave an IC50 of 15.8 µM.
`O=C(O)/C=C/c1ccc(O)cc1` [COUMARIC ACID] was tested, and the IC50 was 73.4 µM.
`CC1=CC(=O)[C@@H](O)[C@]2(C)[C@H]3[C@@]4(O)C(=O)OC[C@@]35[C@@H](C[C@@H]12)OC(=O)C[C@H]5[C@H]4C` [SHINJUDILACTONE] showed an IC50 of 63.1 µM.
Compound `O=c1ccc2ncc(O[C@@H]3O[C@H](CO)[C@@H](O)[C@H](O)[C@H]3O[C@@H]3OC[C@](O)(CO)[C@H]3O)c3c4ccccc4n1c23` has an IC50 of 63.5 µM.
Compound `COc1cc(/C=C/C(=O)O)ccc1O[C@@H]1O[C@H](CO)[C@@H](O)[C@H](O)[C@H]1O` has an IC50 of 71.6 µM.
`COc1cc(/C=C/C(=O)O)ccc1O` [FERULATE] showed an IC50 of over 100 µM.
Work on `COc1cc([C@H]2OC[C@H]3[C@@H]2CO[C@@H]3c2cc(OC)c(O)c(OC)c2)cc(OC)c1O` [SYRINGARESINOL] yielded an IC50 of 21.6 µM.
